From patent US20240217967A1, “INDOLINE DERIVATIVES AS DDRS INHIBITORS” (CHIESI FARMACEUTICI S.P.A., priority 2021, published 2024)

Experiments:
DDR1 [1] = target: T1, DDR1 (Homo sapiens, UniProt Q08345); test: DDR1 LanthaScreen Europium Kinase Binding assay; details: binding affinity; IC50 converted in Ki using Cheng-Prusoff; read-out: Ki DDR1
Procedure, shortened: (§1)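 Binding by TR-FRET tracer displacement: compounds incubated 1 h at room temperature with 5 nM DDR1 plus 20 nM Kinase Tracer 178, or 5 nM DDR2 plus 10 nM tracer, and 2 nM Eu anti-GST antibody in pH 7.5 HEPES/MgCl2/EGTA/BRIJ35 buffer. 665/615 nm ratio gave four-parameter IC50, converted to Ki via Cheng-Prusoff.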

DDR2 [2] = target: T2, DDR2 (Homo sapiens, UniProt Q16832); test: DDR2 LanthaScreen Europium Kinase Binding assay; details: binding affinity; IC50 converted in Ki using Cheng-Prusoff; read-out: Ki DDR2
T2 sequence (Q16832 22-855): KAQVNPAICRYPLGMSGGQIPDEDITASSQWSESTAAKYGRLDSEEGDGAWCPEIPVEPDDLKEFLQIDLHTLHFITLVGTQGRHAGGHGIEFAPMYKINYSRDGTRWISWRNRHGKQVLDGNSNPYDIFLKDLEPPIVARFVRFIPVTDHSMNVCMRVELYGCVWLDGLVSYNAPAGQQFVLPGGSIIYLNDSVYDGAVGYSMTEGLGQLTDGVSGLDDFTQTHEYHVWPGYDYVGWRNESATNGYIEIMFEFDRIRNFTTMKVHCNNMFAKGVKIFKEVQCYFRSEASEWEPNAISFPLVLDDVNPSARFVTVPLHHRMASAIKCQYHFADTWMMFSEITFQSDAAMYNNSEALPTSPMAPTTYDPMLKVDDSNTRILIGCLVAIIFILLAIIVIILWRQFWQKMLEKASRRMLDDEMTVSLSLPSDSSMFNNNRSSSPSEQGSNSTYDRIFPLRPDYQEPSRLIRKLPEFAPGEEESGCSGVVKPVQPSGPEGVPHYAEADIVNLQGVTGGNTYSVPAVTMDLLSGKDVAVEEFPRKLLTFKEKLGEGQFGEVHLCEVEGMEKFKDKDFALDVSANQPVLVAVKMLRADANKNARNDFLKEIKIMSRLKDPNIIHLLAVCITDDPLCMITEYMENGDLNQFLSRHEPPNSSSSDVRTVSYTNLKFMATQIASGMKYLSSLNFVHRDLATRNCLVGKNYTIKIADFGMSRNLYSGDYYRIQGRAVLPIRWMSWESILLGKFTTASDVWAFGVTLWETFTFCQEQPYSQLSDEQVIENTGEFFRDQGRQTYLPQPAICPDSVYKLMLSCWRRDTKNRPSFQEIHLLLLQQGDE
Procedure, shortened: as §1

DDR1 [3] = target: T1, DDR1; test: DDR1 cell based assay (PathHunter U2OS DDR1, collagen II stimulation); details: U2OS-DDR1 cells, bovine Type II Collagen stimulation
Procedure, shortened: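 Receptor activation measured by enzyme-fragment complementation luminescence in engineered U2OS cells. Compound added 30 min before overnight challenge with 20 μg/ml bovine collagen II; data scaled between vehicle and collagen-stimulated controls, IC50 derived by four-parameter variable-slope fitting.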

DDR2 [4] = target: T2, DDR2; test: DDR2 cell based assay (phospho-ELISA in HEK293T-DDR2 recombinant cells, collagen II stimulation); details: bovine Type II Collagen stimulation
Description: The inhibition of DDR2 phosphorylation by compounds was evaluated in HEK293T-DDR2 recombinant cells by phospho-ELISA assay. Briefly, HEK293T-DDR2 cells were seeded in poly-D-lysine-coated 24-well plates at a density of 250.000 cells/well and incubated for 1.5 hours at 37° C. and 5% CO2 in DMEM+10% FBS. After that, the medium was changed to serum-free DMEM and cells were incubated for 3 hours. Then. test compounds were added at different concentrations 30 minutes before stimulation with bovine Type II Collagen at 50 μg/ml for further 3 hours. For DDR2 phospho-ELISA assay (DuoSet IC Human Phospho-DDR2; R&D Systems), protein extracts were obtained by adding 60 μl/well of lysis buffer prepared according to the manufacturer's instructions. Protein concentration in the samples was determined by BCA assay and the levels of phospho-DDR2 were determined following R&D Systems indications. Raw data were normalized to maximal inhibition control (0% for normalization) and positive control (100% for normalization; cells treated with […] collagen II) and IC50 parameters were calculated in GraphPad Prism 8.0 software, using sigmoidal dose-response curve fitting with variable slope.

T1 sequence (Q08345 19-913): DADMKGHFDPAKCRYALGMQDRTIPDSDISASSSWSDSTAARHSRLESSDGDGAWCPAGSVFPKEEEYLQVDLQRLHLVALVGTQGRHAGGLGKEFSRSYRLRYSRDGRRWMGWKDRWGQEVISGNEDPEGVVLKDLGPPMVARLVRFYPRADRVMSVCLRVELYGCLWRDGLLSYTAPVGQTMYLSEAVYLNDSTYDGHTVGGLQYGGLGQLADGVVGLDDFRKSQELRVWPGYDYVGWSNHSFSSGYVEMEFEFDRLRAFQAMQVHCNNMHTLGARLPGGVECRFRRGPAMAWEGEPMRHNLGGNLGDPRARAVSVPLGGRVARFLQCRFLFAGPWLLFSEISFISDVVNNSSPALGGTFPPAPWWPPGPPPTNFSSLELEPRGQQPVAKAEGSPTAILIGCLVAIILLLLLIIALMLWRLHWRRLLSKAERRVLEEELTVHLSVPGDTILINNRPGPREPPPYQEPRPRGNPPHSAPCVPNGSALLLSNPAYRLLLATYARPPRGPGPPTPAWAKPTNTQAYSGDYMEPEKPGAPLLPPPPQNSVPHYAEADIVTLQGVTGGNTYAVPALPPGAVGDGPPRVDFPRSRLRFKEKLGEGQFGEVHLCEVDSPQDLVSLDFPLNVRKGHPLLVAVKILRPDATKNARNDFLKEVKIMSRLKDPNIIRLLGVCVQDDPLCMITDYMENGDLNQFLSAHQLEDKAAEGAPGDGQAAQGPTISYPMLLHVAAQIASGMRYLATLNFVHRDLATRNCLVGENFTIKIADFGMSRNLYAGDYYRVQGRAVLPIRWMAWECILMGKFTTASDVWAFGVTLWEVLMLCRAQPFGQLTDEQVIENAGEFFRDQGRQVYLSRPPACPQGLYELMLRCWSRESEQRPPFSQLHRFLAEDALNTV

SMILES | Ki (DDR1 [1]) | Ki (DDR2 [2]) | IC50 (DDR1 [3]) | IC50 (DDR2 [4])
O=C(Nc1cc(F)cc(C(F)(F)F)c1)c1ccc2c(c1)N(Cc1cnc3ccccn13)CC2 [Example 59, N-(3-fluoro-5-(trifluoromethyl)phenyl)-1-(imidazo[1,2-a]pyridin-3-ylmethyl)indoline-6-carboxamide] | < 25 nM | < 25 nM | < 25 nM | 50 to 80 nM
CN1CCN(Cc2ccc(NC(=O)c3ccc4c(c3)N(Cc3cnc5[nH]ncc5c3)CC4)cc2C(F)(F)F)CC1 [Example 75] | < 25 nM | < 25 nM | < 25 nM | < 25 nM
CC(C)(c1cc(NC(=O)c2ccc3c(c2)N(Cc2cnc4[nH]ncc4c2)CC3)no1)C(F)(F)F [Example 36, 1-((1H-pyrazolo[3,4-b]pyridin-5-yl)methyl)-N-(5-(1,1,1-trifluoro-2-methylpropan-2-yl)isoxazol-3-yl)indoline-6-carboxamide] | < 25 nM | < 25 nM | < 25 nM | 50 to 80 nM
Cc1cn(-c2cc(C(=O)Nc3ccc4c(c3)N(C(=O)c3cnc5[nH]ncc5c3)CC4)cc(C(F)(F)F)c2)cn1 [Example 21, N-(1-(1H-pyrazolo[3,4-b]pyridine-5-carbonyl)indolin-6-yl)-3-(4-methyl-1H-imidazol-1-yl)-5-(trifluoromethyl)benzamide] | < 25 nM | < 25 nM | 25 to 50 nM | < 25 nM
CN1CCN(Cc2ccc(NC(=O)c3ccc4c(c3)N(Cc3cnc5[nH]nc(N6CCOCC6)c5c3)CC4)cc2C(F)(F)F)CC1 [Example 89, N-[4-[(4-methylpiperazin-1-yl)methyl]-3-(trifluoromethyl)phenyl]-1-[(3-morpholino-1H-pyrazolo[3,4-b]pyridin-5-yl)methyl]indoline-6-carboxamide] | < 25 nM | < 25 nM | < 25 nM | 50 to 80 nM
Cc1cn(-c2cc(NC(=O)c3ccc4c(c3)N(Cc3cnc5[nH]ccc5c3)CC4)cc(C(F)(F)F)c2)cn1 [Example 2, 1-((1H-pyrrolo[2,3-b]pyridin-5-yl)methyl)-N-(3-(4-methyl-1H-imidazol-1-yl)-5-(trifluoromethyl)phenyl)indoline-6-carboxamide] | < 25 nM | < 25 nM | < 25 nM | < 25 nM
O=C(Nc1cc(F)cc(C(F)(F)F)c1)c1ccc2c(c1)N(Cc1cnc3[nH]ncc3c1)CC2 [Example 39, 1-((1H-pyrazolo[3,4-b]pyridin-5-yl)methyl)-N-(3-fluoro-5-(trifluoromethyl)phenyl)indoline-6-carboxamide] | 25 to 50 nM | < 25 nM | < 25 nM | 25 to 50 nM
Cc1cn(-c2cc(NC(=O)c3ccc4c(c3)N(C(=O)c3cnc5[nH]ncc5c3)CC4C)cc(C(F)(F)F)c2)cn1 (centres unmarked) [Example 28, 3-methyl-N-(3-(4-methyl-1H-imidazol-1-yl)-5-(trifluoromethyl)phenyl)-1-(1H-pyrazolo[3,4-b]pyridine-5-carbonyl)indoline-6-carboxamide] | < 25 nM | 25 to 50 nM | < 25 nM | 25 to 50 nM
Cc1cn(-c2cc(NC(=O)c3ccc4c(c3)N(Cc3cnc5[nH]ncc5c3)CC4)cc(C(F)(F)F)c2)cn1 [Example 6, 1-((1H-pyrazolo[3,4-b]pyridin-5-yl)methyl)-N-(3-(4-methyl-1H-imidazol-1-yl)-5-(trifluoromethyl)phenyl)indoline-6-carboxamide] | < 25 nM | < 25 nM | < 25 nM | 50 to 80 nM
O=C(Nc1cccc(OC(F)(F)F)c1)c1ccc2c(c1)N(Cc1cnc3[nH]ncc3c1)CC2 [Example 37, 1-((1H-pyrazolo[3,4-b]pyridin-5-yl)methyl)-N-(3-(trifluoromethoxy)phenyl)indoline-6-carboxamide] | < 25 nM | < 25 nM | < 25 nM | < 25 nM
Cc1n[nH]c2ncc(CN3CCc4ccc(C(=O)Nc5cc(C(C)(C)C)no5)cc43)cc12 [Example 80, N-(3-(tert-butyl)isoxazol-5-yl)-1-((3-methyl-1H-pyrazolo[3,4-b]pyridin-5-yl)methyl)indoline-6-carboxamide] | < 25 nM | < 25 nM | < 25 nM | < 25 nM
CN1CCN(Cc2cc(NC(=O)c3ccc4c(c3)N(Cc3cnc5[nH]ccc5c3)CC4)cc(C(F)(F)F)c2)CC1 [Example 9, 1-((1H-pyrrolo[2,3-b]pyridin-5-yl)methyl)-N-(3-((4-methylpiperazin-1-yl)methyl)-5-(trifluoromethyl)phenyl)indoline-6-carboxamide] | < 25 nM | < 25 nM | < 25 nM | < 25 nM
Cc1cn(-c2cc(NC(=O)c3ccc4c(c3)N(Cc3cnc5[nH]nc(C)c5c3)CC4)cc(C(F)(F)F)c2)cn1 [Example 7, N-(3-(4-methyl-1H-imidazol-1-yl)-5-(trifluoromethyl)phenyl)-1-((3-methyl-1H-pyrazolo[3,4-b]pyridin-5-yl)methyl)indoline-6-carboxamide] | < 25 nM | < 25 nM | < 25 nM | 25 to 50 nM
Cc1cn(-c2cc(NC(=O)c3ccc4c(c3)N(Cc3cnc5cnccn35)CC4C)cc(C(F)(F)F)c2)cn1 (single isomer, unassigned) [Example 27, 1-(imidazo[1,2-a]pyrazin-3-ylmethyl)-3-methyl-N-(3-(4-methyl-1H-imidazol-1-yl)-5-(trifluoromethyl)phenyl)indoline-6-carboxamide] | < 25 nM | < 25 nM | < 25 nM | < 25 nM
